Reference: PubChem BioAssay (NCI)
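Dose response: 5 concentrations. Exposure: 48 h. Format: 96-well plates. Endpoint: linear interpolation; highest concentration if not reached. TGI denotes the concentration required for complete inhibition of growth.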

How the values were obtained:
Assay in all cases: NCI-60 cell line screen, 48 h
DLD-1 colon = test system: DLD-1 colon
DMS 114 small cell lung = test system: DMS 114 small cell lung
DMS 273 small cell lung = test system: DMS 273 small cell lung
KM20L2 colon = test system: KM20L2 colon
LXFL 529 NSCLC = test system: LXFL 529 NSCLC
M19-MEL melanoma = test system: M19-MEL melanoma
SNB-78 CNS = test system: SNB-78 CNS
XF 498 CNS = test system: XF 498 CNS
BT-549 breast = test system: BT-549 breast
T-47D breast = test system: T-47D breast
HOP-18 NSCLC = test system: HOP-18 NSCLC
RXF-631 renal = test system: RXF-631 renal

## CCc1cc2c(O)c(c1)Cc1cc(CC)cc(c1O)Cc1cc(CC)cc(c1O)Cc1cc(CC)cc(c1O)Cc1cc(CC)cc(c1O)Cc1cc(CC)cc(c1O)Cc1cc(CC)cc(c1O)C2
DLD-1 colon
  TGI: > 100 µM
DMS 114 small cell lung
  TGI: > 100 µM
DMS 273 small cell lung
  TGI: > 100 µM
KM20L2 colon
  TGI: > 100 µM
LXFL 529 NSCLC
  TGI: > 100 µM
M19-MEL melanoma
  TGI: > 100 µM
SNB-78 CNS
  TGI: > 100 µM
XF 498 CNS
  TGI: > 100 µM

## CCNC1=C(NC(=O)c2ccccc2)C(=O)c2ccccc2C1=O
BT-549 breast
  TGI: > 100 µM
T-47D breast
  TGI: > 100 µM

## CC(NC1=CC(=O)c2cccnc2C1=O)C(O)c1ccccc1 (centres undefined)
BT-549 breast
  TGI: 3.59 µM
T-47D breast
  TGI: 18.7 µM

## Nc1cccc(OCC2CCCN3CCCCC23)c1 (centres undefined)
BT-549 breast
  TGI: 30.9 µM
T-47D breast
  TGI: 33.8 µM

## CC1(C)c2ccccc2N2O[C@@H]3C(=O)N(c4ccccc4)C(=O)[C@@H]3C21c1ccccc1 (some centres undefined)
DLD-1 colon
  TGI: > 100 µM
DMS 114 small cell lung
  TGI: > 100 µM
DMS 273 small cell lung
  TGI: > 100 µM
LXFL 529 NSCLC
  TGI: > 100 µM
M19-MEL melanoma
  TGI: > 100 µM
SNB-78 CNS
  TGI: > 100 µM
XF 498 CNS
  TGI: > 100 µM

## COC(=O)c1c(-c2cc(OC)c(OC)c(OC)c2)oc2ccccc2c1=O
DLD-1 colon
  TGI: > 100 µM
DMS 273 small cell lung
  TGI: > 100 µM
HOP-18 NSCLC
  TGI: > 100 µM
KM20L2 colon
  TGI: > 100 µM
LXFL 529 NSCLC
  TGI: > 100 µM
M19-MEL melanoma
  TGI: > 100 µM
SNB-78 CNS
  TGI: > 100 µM

## CC(C)(C)[C@H]1CO[C@]2(c3ccccc3)[C@@H]3C[C@@H]3C(=O)N12
DLD-1 colon
  TGI: > 100 µM
DMS 114 small cell lung
  TGI: > 100 µM
DMS 273 small cell lung
  TGI: > 100 µM
KM20L2 colon
  TGI: > 100 µM
LXFL 529 NSCLC
  TGI: > 100 µM
M19-MEL melanoma
  TGI: > 100 µM
XF 498 CNS
  TGI: > 100 µM

## OCCCCn1cc(Cn2ncc3c(NCc4ccccc4)ncnc32)nn1
BT-549 breast
  TGI: > 100 µM
T-47D breast
  TGI: > 100 µM

## O=[N+]([O-])c1cc(-[n+]2cc([O-])on2)ccc1Cl
BT-549 breast
  TGI: 49 µM
T-47D breast
  TGI: 38.8 µM

## O=C(CC(C(=O)c1ccsc1)c1ccsc1)c1ccsc1 (centres undefined)
T-47D breast
  TGI: > 100 µM

## CCOC(=N)CC(=O)Nc1ccccc1
DLD-1 colon
  TGI: > 46.4 µM
DMS 114 small cell lung
  TGI: > 46.4 µM
DMS 273 small cell lung
  TGI: > 46.4 µM
HOP-18 NSCLC
  TGI: > 31.6 µM
KM20L2 colon
  TGI: > 100 µM
LXFL 529 NSCLC
  TGI: > 46.4 µM
M19-MEL melanoma
  TGI: > 46.4 µM
SNB-78 CNS
  TGI: > 46.4 µM
XF 498 CNS
  TGI: > 67 µM

## CCN(CC)C(=S)SCC(=O)Nc1nc2c(s1)CCCC2
DLD-1 colon
  TGI: > 100 µM
DMS 114 small cell lung
  TGI: > 100 µM
DMS 273 small cell lung
  TGI: > 100 µM
KM20L2 colon
  TGI: > 100 µM
LXFL 529 NSCLC
  TGI: > 100 µM
M19-MEL melanoma
  TGI: > 100 µM
SNB-78 CNS
  TGI: > 100 µM
XF 498 CNS
  TGI: > 100 µM

## CC(=O)C1C(=O)C(=O)N(c2ccc([N+](=O)[O-])cc2)C1=O (centres undefined)
BT-549 breast
  TGI: > 100 µM

## CCOC(=O)C1C(c2ccc(OC)cc2)c2c([nH][nH]c2=O)CC1(C)O (centres undefined)
BT-549 breast
  TGI: > 100 µM
T-47D breast
  TGI: > 100 µM

## c1ccc2c(c1)c1c3c(c4c(n32)=NCCN4)CCC1
BT-549 breast
  TGI: > 100 µM
T-47D breast
  TGI: 92.1 µM

## CN(C)c1ccc(/C=N/c2nc3cc4sc(/N=C/c5ccc(N(C)C)cc5)nc4cc3s2)cc1
BT-549 breast
  TGI: > 100 µM
T-47D breast
  TGI: > 100 µM

## COc1ccc(-c2csc(Cc3nc4c(Br)cc(Br)cc4c(=O)n3-c3ccc(OC)cc3)n2)cc1
BT-549 breast
  TGI: > 100 µM

## CCC1(CC)N=C(C(F)(F)F)c2cc(C(=O)C(F)(F)F)c3ccccc3c2N1
BT-549 breast
  TGI: 29 µM
T-47D breast
  TGI: 15.2 µM

## CC1(C)C(=O)C(C)(C)C1=NNC(N)=S
DMS 114 small cell lung
  TGI: > 100 µM
DMS 273 small cell lung
  TGI: > 100 µM
KM20L2 colon
  TGI: > 100 µM
LXFL 529 NSCLC
  TGI: > 100 µM
M19-MEL melanoma
  TGI: > 100 µM
RXF-631 renal
  TGI: > 100 µM
SNB-78 CNS
  TGI: > 100 µM
XF 498 CNS
  TGI: > 100 µM

## Cn1c(=O)cc2[nH]c3ccccc3n2c1=O
DLD-1 colon
  TGI: > 100 µM
DMS 114 small cell lung
  TGI: > 100 µM
DMS 273 small cell lung
  TGI: 45.3 µM
HOP-18 NSCLC
  TGI: > 100 µM
KM20L2 colon
  TGI: > 100 µM
LXFL 529 NSCLC
  TGI: > 100 µM
M19-MEL melanoma
  TGI: > 100 µM
RXF-631 renal
  TGI: 86.5 µM
SNB-78 CNS
  TGI: > 100 µM

## COC(=O)CC(C(C(=O)OC)C(=O)OC)N1C(=O)OC(c2ccccc2)C1c1ccccc1 (centres undefined)
DLD-1 colon
  TGI: > 100 µM
DMS 114 small cell lung
  TGI: > 100 µM
DMS 273 small cell lung
  TGI: > 100 µM
HOP-18 NSCLC
  TGI: > 100 µM
KM20L2 colon
  TGI: > 100 µM
LXFL 529 NSCLC
  TGI: > 100 µM
M19-MEL melanoma
  TGI: > 100 µM

## O=c1[nH][nH]c(=O)n1/N=C/c1ccccc1
BT-549 breast
  TGI: > 100 µM
T-47D breast
  TGI: > 100 µM

## COC(=O)c1ccc(C)cc1CC1Cc2cccc(C)c2C1=O (centres undefined)
BT-549 breast
  TGI: 87.6 µM
T-47D breast
  TGI: 57.9 µM

## CCOC(=O)c1c(N2CCCC2)[nH]c(=O)c(C(c2ccc(Cl)c([N+](=O)[O-])c2)c2c(O)c(C(=O)OCC)c(N3CCCC3)[nH]c2=O)c1O
BT-549 breast
  TGI: 51.8 µM
T-47D breast
  TGI: > 100 µM

## CC/C(Cl)=N\OC(=O)Nc1ccc(OC)c(C)c1
BT-549 breast
  TGI: 34.9 µM
T-47D breast
  TGI: 39.1 µM

## COc1ccc(OC)c(NC(=O)C(=O)CC(=O)c2sc(-n3nc(-c4ccccc4)cc3-c3ccccc3)nc2C)c1
DLD-1 colon
  TGI: > 100 µM
DMS 114 small cell lung
  TGI: > 100 µM
DMS 273 small cell lung
  TGI: > 100 µM
KM20L2 colon
  TGI: > 100 µM
LXFL 529 NSCLC
  TGI: > 100 µM
M19-MEL melanoma
  TGI: > 100 µM
RXF-631 renal
  TGI: > 100 µM
SNB-78 CNS
  TGI: > 100 µM

## Cc1ccc(/C=C/C(=O)c2sc(-n3nc(-c4ccccc4)cc3-c3ccccc3)nc2C)cc1
DLD-1 colon
  TGI: > 100 µM
DMS 114 small cell lung
  TGI: > 100 µM
DMS 273 small cell lung
  TGI: > 100 µM
HOP-18 NSCLC
  TGI: > 100 µM
KM20L2 colon
  TGI: > 100 µM
M19-MEL melanoma
  TGI: > 100 µM
SNB-78 CNS
  TGI: > 100 µM

## COc1cc2c(oc(=O)c3cc4cc([Si](C)(C)C)oc4c(OC)c32)c2cccc(O)c12
DLD-1 colon
  TGI: > 100 µM
DMS 114 small cell lung
  TGI: > 100 µM
DMS 273 small cell lung
  TGI: > 100 µM
HOP-18 NSCLC
  TGI: > 100 µM
KM20L2 colon
  TGI: > 100 µM
LXFL 529 NSCLC
  TGI: > 100 µM
M19-MEL melanoma
  TGI: > 100 µM
SNB-78 CNS
  TGI: > 100 µM
XF 498 CNS
  TGI: > 100 µM

## Nc1nc(N)c2ncn(CCOC(c3ccccc3)P(=O)(O)O)c2n1 (centres undefined)
DLD-1 colon
  TGI: > 100 µM
DMS 114 small cell lung
  TGI: > 100 µM
DMS 273 small cell lung
  TGI: > 100 µM
KM20L2 colon
  TGI: > 100 µM
M19-MEL melanoma
  TGI: > 100 µM
SNB-78 CNS
  TGI: > 100 µM
XF 498 CNS
  TGI: > 100 µM

## O=C(COc1ccccc1)N(C(=O)N1CCN(c2ccccc2)CC1)S(=O)(=O)c1ccccc1
BT-549 breast
  TGI: > 100 µM
T-47D breast
  TGI: 87.6 µM

## C=CCN1C[C@H](C)N([C@H](c2ccc(C(=O)N(CC)CC)cc2)c2cccc(OC)c2)C[C@H]1C
BT-549 breast
  TGI: > 100 µM
T-47D breast
  TGI: 65.5 µM
